What was measured:
[1] = Inhibition of HCV genotype 1b Con1 NS5A expressed in HuH7 cell infected HCV genotype 2b assessed as decrease in viral replication after 3 days by luciferase reporter gene assay
[2] = Inhibition of HCV genotype 1b Con1 NS5A expressed in HuH7 cell infected HCV genotype 6a assessed as decrease in viral replication after 3 days by luciferase reporter gene assay
[3] = Inhibition of HCV genotype 1b Con1 NS5A expressed in HuH7 cell infected HCV genotype 2a assessed as decrease in viral replication after 3 days by luciferase reporter gene assay
[4] = Inhibition of HCV genotype 1b Con1 NS5A expressed in HuH7 cell infected HCV genotype 4a assessed as decrease in viral replication after 3 days by luciferase reporter gene assay
[5] = Inhibition of NS5A in HuH7 cell infected HCV genotype 1b Con1 assessed as decrease in viral replication after 3 days in presence of 40% human plasma by luciferase reporter gene assay
[6] = Inhibition of NS5A in HuH7 cell infected HCV genotype 1a H77 assessed as decrease in viral replication after 3 days in presence of 40% human plasma by luciferase reporter gene assay
[7] = Inhibition of NS5A in HuH7 cell infected HCV genotype 1b Con1 assessed as decrease in viral replication after 3 days by luciferase reporter gene assay
[8] = Inhibition of HCV genotype 1b Con1 NS5A expressed in HuH7 cell infected HCV genotype 5a assessed as decrease in viral replication after 3 days by luciferase reporter gene assay
[9] = Inhibition of HCV genotype 1b Con1 NS5A expressed in HuH7 cell infected HCV genotype 3a assessed as decrease in viral replication after 3 days by luciferase reporter gene assay
[10] = Inhibition of NS5A in HuH7 cell infected HCV genotype 1a H77 assessed as decrease in viral replication after 3 days by luciferase reporter gene assay

COC(=O)N[C@H](C(=O)N1CCC[C@H]1c1nc2cc([C@H]3CC[C@H](c4cc5nc([C@@H]6CCCN6C(=O)[C@@H](NC(=O)OC)[C@@H](C)OC)[nH]c5cc4F)N3c3cc(F)c(N4CCC(c5ccc(F)cc5)CC4)c(F)c3)c(F)cc2[nH]1)[C@@H](C)OC [A-1325912.0]
EC50 [1]: 1.9 pM
EC50 [2]: 2.8 pM
EC50 [3]: 2.3 pM
EC50 [4]: 1.9 pM
EC50 [5]: 200 pM
EC50 [6]: 64 pM
EC50 [7]: 4.3 pM
EC50 [8]: 1.4 pM
EC50 [9]: 2.1 pM
EC50 [10]: 1.8 pM

COC(=O)N[C@H](C(=O)N1CCC[C@H]1c1nc2ccc([C@H]3CC[C@H](c4ccc5nc([C@@H]6CCCN6C(=O)[C@@H](NC(=O)OC)C(C)C)[nH]c5c4)N3c3ccc(-c4ccccc4)cc3)cc2[nH]1)C(C)C
EC50 [1]: 9 pM
EC50 [2]: 11 pM
EC50 [3]: 11 pM
EC50 [4]: 6 pM
EC50 [5]: 108 pM
EC50 [6]: 75 pM
EC50 [7]: 3 pM
EC50 [9]: 16 pM
EC50 [10]: 4 pM

COC(=O)N[C@H](C(=O)N1CCC[C@H]1c1nc2ccc([C@@H]3CC[C@@H](c4ccc5nc([C@@H]6CCCN6C(=O)[C@@H](NC(=O)OC)C(C)C)[nH]c5c4)N3c3ccc(C(C)(C)C)cc3)cc2[nH]1)C(C)C
EC50 [5]: 354 pM
EC50 [6]: 1980 pM
EC50 [7]: 13 pM
EC50 [10]: 71 pM

COC(=O)N[C@H](C(=O)N1CCC[C@H]1c1nc2ccc([C@H]3CC[C@H](c4ccc5nc([C@@H]6CCCN6C(=O)[C@@H](NC(=O)OC)C(C)C)[nH]c5c4)N3c3ccc(N4CCC(c5ccccc5)CC4)cc3)cc2[nH]1)C(C)C
EC50 [1]: 452 pM
EC50 [2]: 402 pM
EC50 [3]: 468 pM
EC50 [4]: 243 pM
EC50 [5]: 1510 pM
EC50 [6]: 1510 pM
EC50 [7]: 325 pM
EC50 [9]: 481 pM
EC50 [10]: 324 pM

COC(=O)N[C@H](C(=O)N1CCC[C@H]1c1nc2cc(F)c([C@H]3CC[C@H](c4cc5[nH]c([C@@H]6CCCN6C(=O)[C@@H](NC(=O)OC)C6CCOCC6)nc5cc4F)N3c3cc(F)c(N4CCC(c5ccccc5)CC4)c(F)c3)cc2[nH]1)C1CCOCC1
EC50 [1]: 8 pM
EC50 [2]: 12 pM
EC50 [3]: 9 pM
EC50 [4]: 6 pM
EC50 [5]: 337 pM
EC50 [6]: 136 pM
EC50 [7]: 8 pM
EC50 [8]: 6 pM
EC50 [9]: 11 pM
EC50 [10]: 4 pM

COC(=O)N[C@H](C(=O)N1CCC[C@H]1c1nc2ccc([C@H]3CC[C@H](c4ccc5nc([C@@H]6CCCN6C(=O)[C@@H](NC(=O)OC)C(C)C)[nH]c5c4)N3c3ccc(N4CCOCC4)cc3)cc2[nH]1)C(C)C
EC50 [1]: 960 pM
EC50 [3]: 598 pM
EC50 [4]: 316 pM
EC50 [5]: 2070 pM
EC50 [6]: 902 pM
EC50 [7]: 382 pM
EC50 [9]: 1200 pM
EC50 [10]: 379 pM

COC(=O)N[C@H](C(=O)N1CCC[C@H]1c1nc2cc(F)c([C@H]3CC[C@H](c4cc5[nH]c([C@@H]6CCCN6C(=O)[C@@H](NC(=O)OC)C(C)C)nc5cc4F)N3c3cc(F)c(N4CCC(c5ccccc5)CC4)c(F)c3)cc2[nH]1)C(C)C
EC50 [1]: 3 pM
EC50 [2]: 9 pM
EC50 [3]: 8 pM
EC50 [4]: 4 pM
EC50 [5]: 135 pM
EC50 [6]: 58 pM
EC50 [7]: 6 pM
EC50 [8]: 2 pM
EC50 [9]: 4 pM
EC50 [10]: 2 pM

COC(=O)N[C@H](C(=O)N1CCC[C@H]1C(=O)Nc1ccc([C@H]2CC[C@H](c3ccc(NC(=O)[C@@H]4CCCN4C(=O)[C@@H](NC(=O)OC)C(C)C)cc3)N2c2ccc(C(C)(C)C)cc2)cc1)C(C)C
EC50 [5]: 90 pM
EC50 [6]: 986 pM
EC50 [7]: 9 pM
EC50 [10]: 136 pM

COC(=O)N[C@H](C(=O)N1CCC[C@H]1c1nc2ccc([C@H]3CC[C@H](c4ccc5nc([C@@H]6CCCN6C(=O)[C@@H](NC(=O)OC)C(C)C)[nH]c5c4)N3c3ccc(C4CC4)cc3)cc2[nH]1)C(C)C
EC50 [1]: 20 pM
EC50 [3]: 41 pM
EC50 [4]: 20 pM
EC50 [5]: 354 pM
EC50 [6]: 161 pM
EC50 [7]: 23 pM
EC50 [9]: 26 pM
EC50 [10]: 12 pM

COC(=O)N[C@H](C(=O)N1CCC[C@H]1c1nc2ccc([C@H]3CC[C@H](c4ccc5nc([C@@H]6CCCN6C(=O)[C@@H](NC(=O)OC)C(C)C)[nH]c5c4)N3c3ccc(C(C)(C)C)cc3)cc2[nH]1)C(C)C
EC50 [1]: 10 pM
EC50 [3]: 152 pM
EC50 [4]: 6 pM
EC50 [5]: 268 pM
EC50 [6]: 148 pM
EC50 [7]: 13 pM
EC50 [9]: 6 pM
EC50 [10]: 9 pM

COC(=O)N[C@H](C(=O)N1CCC[C@H]1c1nc2ccc([C@H]3CC[C@H](c4ccc5nc([C@@H]6CCCN6C(=O)[C@@H](NC(=O)OC)C(C)C)[nH]c5c4)N3c3ccc(OC(F)(F)F)cc3)cc2[nH]1)C(C)C
EC50 [1]: 12 pM
EC50 [3]: 43 pM
EC50 [4]: 13 pM
EC50 [5]: 230 pM
EC50 [6]: 276 pM
EC50 [7]: 12 pM
EC50 [9]: 18 pM
EC50 [10]: 19 pM

COC(=O)N[C@H](C(=O)N1CCC[C@H]1c1nc2ccc([C@H]3CC[C@H](c4ccc5nc([C@@H]6CCCN6C(=O)[C@@H](NC(=O)OC)C(C)C)[nH]c5c4)N3c3ccc(N4CCOCC4)c(F)c3)cc2[nH]1)C(C)C
EC50 [1]: 229 pM
EC50 [3]: 307 pM
EC50 [4]: 170 pM
EC50 [5]: 915 pM
EC50 [6]: 474 pM
EC50 [7]: 196 pM
EC50 [9]: 355 pM
EC50 [10]: 189 pM

COC(=O)N[C@H](C(=O)N1CCC[C@H]1c1nc2ccc([C@H]3CC[C@H](c4ccc5nc([C@@H]6CCCN6C(=O)[C@@H](NC(=O)OC)C(C)C)[nH]c5c4)N3c3ccc(N4CCCCC4)c(F)c3)cc2[nH]1)C(C)C
EC50 [1]: 30 pM
EC50 [3]: 48 pM
EC50 [4]: 17 pM
EC50 [5]: 383 pM
EC50 [6]: 199 pM
EC50 [7]: 29 pM
EC50 [9]: 44 pM
EC50 [10]: 18 pM

COC(=O)N[C@H](C(=O)N1CCC[C@H]1c1nc2ccc([C@H]3CC[C@H](c4ccc5nc([C@@H]6CCCN6C(=O)[C@@H](NC(=O)OC)C(C)C)[nH]c5c4)N3c3cc(Cl)c(N4CCCCC4)c(Cl)c3)cc2[nH]1)C(C)C
EC50 [1]: 5 pM
EC50 [2]: 10 pM
EC50 [3]: 44 pM
EC50 [4]: 6 pM
EC50 [5]: 132 pM
EC50 [6]: 213 pM
EC50 [7]: 3 pM
EC50 [9]: 11 pM
EC50 [10]: 5 pM

COC(=O)N[C@H](C(=O)N1CCC[C@H]1c1nc2ccc([C@H]3CC[C@H](c4ccc5nc([C@@H]6CCCN6C(=O)[C@@H](NC(=O)OC)C(C)C)[nH]c5c4)N3c3cc(F)c(N4CCC(c5ccc(F)cc5)CC4)c(F)c3)cc2[nH]1)C(C)C
EC50 [1]: 13 pM
EC50 [2]: 21 pM
EC50 [3]: 20 pM
EC50 [4]: 9 pM
EC50 [5]: 126 pM
EC50 [6]: 78 pM
EC50 [7]: 8 pM
EC50 [9]: 13 pM
EC50 [10]: 3 pM

COC(=O)N[C@H](C(=O)N1CCC[C@H]1c1nc2ccc([C@H]3CC[C@H](c4ccc5nc([C@@H]6CCCN6C(=O)[C@@H](NC(=O)OC)C(C)C)[nH]c5c4)N3c3ccc(F)cc3)cc2[nH]1)C(C)C
EC50 [1]: 21 pM
EC50 [2]: 14 pM
EC50 [3]: 28 pM
EC50 [4]: 14 pM
EC50 [5]: 427 pM
EC50 [6]: 490 pM
EC50 [7]: 25 pM
EC50 [9]: 31 pM
EC50 [10]: 38 pM

COC(=O)N[C@H](C(=O)N1CCC[C@H]1c1nc2ccc([C@H]3CC[C@H](c4ccc5nc([C@@H]6CCCN6C(=O)[C@@H](NC(=O)OC)C(C)C)[nH]c5c4)N3c3ccc(Oc4ccccc4)cc3)cc2[nH]1)C(C)C
EC50 [1]: 8 pM
EC50 [3]: 12 pM
EC50 [4]: 5 pM
EC50 [5]: 279 pM
EC50 [6]: 155 pM
EC50 [7]: 20 pM
EC50 [9]: 11 pM
EC50 [10]: 12 pM

COC(=O)N[C@H](C(=O)N1CCC[C@H]1c1nc2cc([C@H]3CC[C@H](c4ccc5[nH]c([C@@H]6CCCN6C(=O)[C@@H](NC(=O)OC)C(C)C)nc5c4)N3c3cc(F)c(N4CCCCC4)c(F)c3)ccc2[nH]1)C(C)C
EC50 [1]: 7 pM
EC50 [2]: 7 pM
EC50 [3]: 13 pM
EC50 [4]: 5 pM
EC50 [5]: 241 pM
EC50 [6]: 151 pM
EC50 [7]: 6 pM
EC50 [9]: 8 pM
EC50 [10]: 5 pM

COC(=O)N[C@H](C(=O)N1CCC[C@H]1c1nc2ccc([C@H]3CC[C@H](c4ccc5nc([C@@H]6CCCN6C(=O)[C@@H](NC(=O)OC)C(C)C)[nH]c5c4)N3c3ccc(C4CCCCC4)cc3)cc2[nH]1)C(C)C
EC50 [1]: 7 pM
EC50 [3]: 10 pM
EC50 [4]: 9 pM
EC50 [5]: 178 pM
EC50 [6]: 107 pM
EC50 [7]: 9 pM
EC50 [9]: 8 pM
EC50 [10]: 4 pM

COC(=O)N[C@H](C(=O)N1CCC[C@H]1c1nc2ccc([C@H]3CC[C@H](c4ccc5nc([C@@H]6CCCN6C(=O)[C@@H](NC(=O)OC)C(C)C)[nH]c5c4)N3c3ccc(Cl)cc3)cc2[nH]1)C(C)C
EC50 [1]: 7 pM
EC50 [2]: 8 pM
EC50 [3]: 12 pM
EC50 [4]: 5 pM
EC50 [5]: 330 pM
EC50 [6]: 240 pM
EC50 [7]: 7 pM
EC50 [9]: 12 pM
EC50 [10]: 6 pM
